From patent EP3995133A1, “STABLE NANOEMULSIONS” (Fundación Tecnalia Research & Innovation, priority 2020, dated 2022)
Like-named read-outs stand apart in the source and are kept apart here.

Columns and labels:
[1] = test system: 3T3; conditions: 3T3, 24 hours
Procedure: (§1) Potential apoptosis and necrosis induction was studied in the cell lines using Annexin V conjugated with Alexa Fluor 488 (Molecular Probes) and Propidium Iodide (PI, Sigma) fluorochromes by Flow Cytometry, to measure early apoptotic event and necrosis respectively, after exposure to different concentrations of sulforaphane or sulforaphane-loaded nanoemulsion suspensions. HaCaT, and 3T3 cells were seeded in 24 well plates at a density of 100.000 cells/well. 24 hours later cells were exposed to test items for further 24 hours. After the exposure, 5 µL of the annexin V conjugates were added to each 100 µL of cell suspension replicate (minimum of 10.000 cell/100µL) and incubated at room temperature for 15 minutes. After incubation, cells were washed and submitted to flow cytometry acquisition. Immediately before acquisition, the stained cells were contrasted with PI (5 µg/ml) to detect necrotic cells and analysed by Cytomics FC500 Flow Cytometer. Three independent experiments and at least three replicates for each experimental point were carried out. Each experiment included a negative control (untreated cells). […]

[2] = test system: HaCaT; conditions: 24 hours
Procedure: as §1

[3] = 6.25 mM sulforaphane (6.26 printed for the nanoemulsion)

C[S+]([O-])CCCCN=C=S (racemic) [Sulforaphane, D,L-Sulforaphane]
AnnexinV (percentage of positive cells) ([1]; 3.125 mM sulforaphane): 7.73±1.23%
AnnexinV+PI (percentage of positive cells) ([1]; 3.125 mM sulforaphane): 1.93±0.15%
C neg (percentage of cells) ([1]; 3.125 mM sulforaphane): 86.23±1.77%
PI (percentage of positive cells) ([1]; 3.125 mM sulforaphane): 4.10±2.38%
AnnexinV (percentage of positive cells) [1, 3]: 7.83±1.50%
AnnexinV+PI (percentage of positive cells) [1, 3]: 2.03±0.46%
C neg (percentage of cells) [1, 3]: 86.97±1.68%
PI (percentage of positive cells) [1, 3]: 3.17±0.76%
AnnexinV (percentage of positive cells) ([1]; 12.5 mM sulforaphane): 11.07±1.59%
AnnexinV+PI (percentage of positive cells) ([1]; 12.5 mM sulforaphane): 3.07±0.67%
C neg (percentage of cells) ([1]; 12.5 mM sulforaphane): 81.57±3.40%
PI (percentage of positive cells) ([1]; 12.5 mM sulforaphane): 4.30±0.54%
AnnexinV (percentage of positive cells) ([2]; 3.125 mM sulforaphane): 5.90±0.98%
AnnexinV+PI (percentage of positive cells) ([2]; 3.125 mM sulforaphane): 1.27±0.06%
C neg (percentage of cells) ([2]; 3.125 mM sulforaphane): 90.97±1.77%
PI (percentage of positive cells) ([2]; 3.125 mM sulforaphane): 1.87±0.81%
AnnexinV (percentage of positive cells) [2, 3]: 7.33±1.82%
AnnexinV+PI (percentage of positive cells) [2, 3]: 1.83±0.15%
C neg (percentage of cells) [2, 3]: 88.50±1.65%
PI (percentage of positive cells) [2, 3]: 2.33±0.61%
AnnexinV (percentage of positive cells) ([2]; 12.5 mM sulforaphane): 7.17±1.74%
AnnexinV+PI (percentage of positive cells) ([2]; 12.5 mM sulforaphane): 2.03±0.35%
C neg (percentage of cells) ([2]; 12.5 mM sulforaphane): 88.10±3.40%
PI (percentage of positive cells) ([2]; 12.5 mM sulforaphane): 2.70±0.30%
